In ChEMBL document CHEMBL5357073, “Novel Heterocyclic PAD4 Inhibitors for Treating Multiple Diseases” (ACS Med Chem Lett, 2024):

Molecular target: Protein-arginine deiminase type-4 (Homo sapiens, UniProt Q9UM07)
Assay: Inhibition of human recombinant PAD4 using TSTGGRQGSHH peptide as substrate preincubated for 30 mins followed by substrate addition and measured after 90 mins by RapidFire mass spectroscopy analysis

Protein-arginine deiminase type-4, sequence (Q9UM07 whole entry): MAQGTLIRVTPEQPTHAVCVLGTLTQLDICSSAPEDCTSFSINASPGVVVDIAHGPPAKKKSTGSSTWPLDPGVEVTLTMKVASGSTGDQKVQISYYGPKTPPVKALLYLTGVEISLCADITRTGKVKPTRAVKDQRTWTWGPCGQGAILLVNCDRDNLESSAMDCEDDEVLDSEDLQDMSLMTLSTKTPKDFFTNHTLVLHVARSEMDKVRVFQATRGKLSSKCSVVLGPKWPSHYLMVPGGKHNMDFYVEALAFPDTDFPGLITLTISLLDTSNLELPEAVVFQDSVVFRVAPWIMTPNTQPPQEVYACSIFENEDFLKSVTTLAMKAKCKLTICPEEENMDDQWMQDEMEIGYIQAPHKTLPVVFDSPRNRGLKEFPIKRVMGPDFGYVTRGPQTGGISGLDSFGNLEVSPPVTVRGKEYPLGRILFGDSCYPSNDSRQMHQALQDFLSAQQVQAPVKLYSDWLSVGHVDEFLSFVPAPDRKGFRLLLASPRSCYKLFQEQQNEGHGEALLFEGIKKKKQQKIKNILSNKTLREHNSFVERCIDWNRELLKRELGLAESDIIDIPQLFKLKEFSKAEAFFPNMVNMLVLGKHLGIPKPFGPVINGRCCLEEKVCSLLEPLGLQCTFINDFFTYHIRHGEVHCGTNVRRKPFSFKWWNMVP

IC50, ≤ 10 nM:
COC(=O)N(C)CCOc1cccc2cc(-c3nc4cc5c(cc4n3C)CCN(CC(N)CF)C5=O)n(CC3CC3)c12 (stereo unspecified)
Cn1c(-c2cc3cccc(OCCn4cnnn4)c3n2CC2CC2)nc2cc3c(cc21)CCN(CC(N)CF)C3=O (stereo unspecified)
Cn1c(-c2cc3cccc(OCCn4ccnc4)c3n2CC2CC2)nc2cc3c(cc21)CCN(CC(N)CF)C3=O (stereo unspecified)
Cn1c(-c2cc3cccc(OCC4CNC(=O)O4)c3n2CC2CC2)nc2cc3c(cc21)CCN(CC(N)CF)C3=O (stereo unspecified)
Cn1c(-c2cc3cccc(OCCn4cncn4)c3n2CC2CC2)nc2cc3c(cc21)CCN(CC(N)CF)C3=O (stereo unspecified)
Cn1c(-c2cc3cccc(OCCc4cnoc4)c3n2CC2CC2)nc2cc3c(cc21)CCN(CC(N)CF)C3=O (stereo unspecified)
